# Assay results from US11535597B2, “Photoreactive ligands and uses thereof” (The Scripps Research Institute, priority 2017, dated 2022).
# System: proteins in HEK293T cells
# Assay: MS-based mapping of FFF probe-modified peptides (isoTOP, sites of labeling)
# Assay type: binding, human
# Protocol: Preparation and analysis was adapted from methods previously reported. In brief, for global mapping of fragment probe-modified peptides, separate 10 cm dishes of cells were treated with probes (200-250 μM) in 3.0 mL of DMEM (serum-free) and (if applicable) competitor ligands, proteomes harvested and subjected to click chemistry conditions with either light or heavy isotopically labeled biotin-TEV-azide (10 μL of 5 mM stocks in DMSO, final concentration=100 μM), TCEP, ligand and CuSO4 as detailed above. The samples were allowed to react for 1 h at which point the samples were centrifuged (16,000 g, 5 min, 4° C.). The resulting pellets were sonicated in ice-cold methanol (500 μL) and the resuspended light- and heavy-labeled samples were then combined and centrifuged (16,000 g, 5 min, 4° C.). The pellets were then solubilized in PBS containing 1.2% SDS (1 mL) with sonication and heating (5 min, 95° C.). Samples were transferred to falcon tubes containing DPBS (5 mL), to which a 100 μL of streptavidin-agarose beads slurry was added. After incubation, the beads (3 hr) were pelleted by centrifugation (1,400 g, 3 min) and were washed (2×10 mL PBS and 2×10 mL water). The beads were transferred to eppendorf tubes with 1 mL DPBS, centrifuged (1,400 g, 3 min), and resuspended in PBS containing 6 M urea. To this was added 10 mM DTT (25 μL of a 200 mM stock in water) and the beads were incubated at 65° C. for 15 mins. 20 mM iodoacetamide (25 μL of a 400 mM stock in water) was then added and allowed to react at 37° C. for 30 mins with shaking. The bead mixture was diluted with 900 μL PBS, pelleted by centrifugation (1,400 g, 3 min), and resuspended in 200 μL 2M urea (DPBS) containing trypsin and CaCl2 as described above. The beads were separated from the digest by centrifugation (1,000 g, 1 min), washed (2×1 mL PBS and 2×1 mL water) and then transferred to fresh eppendorfs with 1 mL water. The washed beads were washed once further in 150 μL TEV buffer (50 mM Tris, pH 8, 0.5 mM EDTA, 1 mM DTT) by centrifugation (1,400 g, 3 min) and the resuspended in 150 μL TEV buffer. 5 μL TEV protease (80 μM) was added and the reactions were rotated overnight at 29° C. The TEV digest was separated from the beads by centrifugation (1,400 g, 3 min) and the beads were washed once with water (100 μL). The samples were then acidified to a final concentration of 5% (v/v) formic acid and stored at −80° C. prior to analysis.
# The resulting probe-modified peptides were collected for MS analysis, which was performed as described above with differences in the salt bumps applied in the chromatographic gradients which in this case were 0%, 30%, 60%, 90% and 100% NH4OAc (500 μM). The protein identification searches of the MS data were performed with the following changes applied to identify the peptides modified with the corresponding fragment probe and the cleaved TEV tag. All amino acids were considered as possible residues for modification. To facilitate the computational searches, sets of up to 3 amino acids were searched using ProLuCID and filtered with DTASelect as described above. […] The isoTOP ratios for probe labeled peptides were quantified using the in-house software CIMAGE.
# For each protein in the site-of-labeling dataset, the UniProtKB accession number was used to map and collect relevant structures from the RCSB Protein Data Bank (PDB) fulfilling the following criteria: structures determined by X-ray crystallography, wild-type protein, Homo sapiens as the sole source organism. […] Fpocket 2.0 was used to detect potential binding pockets for the resultant structures with all parameters set at recommended default. Pockets with volume less than 500 Å^3 were removed from output prior to further analysis. Residues surrounding fpocket predicted binding pockets for each protein were collected to determine the number of residues overlapping with isoTOP peptides.
smiles,measurement,setting,value
"C#CCCC1(CCC(=O)Nc2ccc(C3CCNCC3)cc2)N=N1 [probe 9, 3-(3-(But-3-yn-1-yl)-3H-diazirin-3-yl)-N-(4-(piperidin-4-yl)phenyl)propanamide]",Labeled Peptide of HEXA Beta-hexosaminidase subuit alpha,"Accession P06865, residues of probe-labeled peptide, family Enzymes",489-499
same,Labeled Peptide of GAA Lysosomal alpha-glucosidase,"Accession P10253, residues of probe-labeled peptide, family Enzymes",855-870
same,Labeled Peptide of GLB1 Beta-galactosidase,"Accession P16278, residues of probe-labeled peptide, family Enzymes",286-299
same,Labeled Peptide,"HEXA Beta-hexosaminidase subunit alpha, residues of probe-modified peptide",489-499
same,Labeled Peptide,"HSP90B1 Endoplasmin, residues of probe-modified peptide",117-135
same,Labeled Peptide,"LGALS3BP Galectin-3-binding protein (Q08380), residues of the probe-labeled peptide",522-541
same,Labeled Peptide,"MAN2B1 Lysosomal alpha-mannosidase (O00754), residues of the probe-labeled peptide",614-638
same,Labeled Peptide,"MAN2B2 Epididymis specific alpha-mannosidase (Q9Y2E5), residues of the probe-labeled peptide",642-664
same,Labeled Peptide,"NAGLU Alpha-N-acetylglucosaminidase (P54802), residues of the probe-labeled peptide",566-580
same,Labeled Peptide,"P4HB Protein disulfide-isomerase (P07237), residues of the probe-labeled peptide",171-195
same,Labeled Peptide,P00338 LDHA L-lactate dehydrogenase A chain,43-57
same,Labeled Peptide,P06865 HEXA Beta-hexosaminidase subunit alpha,489-499
same,Labeled Peptide,P07339 CTSD Cathepsin D,236-253
same,Labeled Peptide,P14625 HSP90B1 Endoplasmin,117-135
same,Labeled Peptide,P16278 GLB1 Beta-galactosidase,286-299
same,Labeled Peptide (residues) of SMYD3 SET and MYND domain-containing protein 3,"Q9H7B4, peptide DQYCLECDCFR, PDB 5HQ8",255-265
same,Labeled Peptide,"protein ATP1A1 (P05023), residues of probe-labeled peptide",894-911
same,Labeled Peptide,"protein C19orf6 Membralin (Q4ZIN3), residues of probe-labeled peptide",254-271
same,Labeled Peptide,"protein CCT6A T-complex protein 1 subunit zeta (P40227), residues of probe-labeled peptide",400-424
same,Labeled Peptide,"protein CLN5 Ceroid-lipofuscinosis neuronal protein 5 (O75503), residues of probe-labeled peptide",74-96
same,Labeled Peptide,"protein CPVL Probable serine carboxypeptidase CPVL (Q9H3G5), residues of probe-labeled peptide",195-208
same,Labeled Peptide,"protein CTSD Cathepsin D, residues of probe-labeled peptide",236-253
same,Labeled Peptide,"protein CTSD Cathespin D (P07339), residues of probe-labeled peptide",236-253
same,Labeled Peptide,"protein DNASE2 Deoxyribonuclease-2-alpha (O00115), residues of probe-labeled peptide",173-202
same,Labeled Peptide,"protein ECHDC1 Ethylmalonyl-CoA decarboxylase (Q9NTX5), residues of probe-labeled peptide",272-283
same,Labeled Peptide,"protein EIF4H Eukaryotic translation initiation factor 4H (Q15056), residues of probe-labeled peptide",97-109
same,Labeled Peptide,"protein FARSB Phenylalanine--tRNA ligase beta subunit, residues of probe-labeled peptide",72-82
same,Labeled Peptide,"protein FARSB Phenylalanini--tRNA ligase beta subunit (Q9NSD9), residues of probe-labeled peptide",72-82
same,Labeled Peptide,"protein GLB1 Beta-galactosidase, residues of probe-labeled peptide",286-299
same,Labeled Peptide,"protein LDHA L-lactate dehydrogenase A chain, residues of the probe-labeled peptide",43-57
same,Labeled Peptide,"protein NAGLU Alpha-N-acetylglucosaminidase, residues of the probe-labeled peptide",566-580
same,Labeled Peptide,"protein P4HB Protein disulfide-isomerase, residues of the probe-labeled peptide",171-195
same,Labeled Peptide,protein P46977 STT3A Dolichyl-diphosphooligosaccharide--protein glycosy,572-595
same,Labeled Peptide,protein PCYOX1 Prenylcysteine oxidase 1 (Q9UHG3),292-304
same,Labeled Peptide,protein PDIA4 Protein disulfide-isomerase A4 (P13667),486-499
same,Labeled Peptide,protein PHB Prohibitin (P35232),220-239
same,Labeled Peptide,protein Q8IXU6 SLC35F2 Solute carrier family 35 member F2,188-221
same,Labeled Peptide,protein Q8TCJ2 STT3B Dolichyl-diphosphooligosaccharide--protein glycosy,651-674
same,Labeled Peptide,protein Q9BVK6 TMED9 Transmembrane emp24 domain-containg protein 9,49-65
same,Labeled Peptide,protein Q9H7B4 SMYD3 SET and MYND domain-containing protein 3,255-265
same,Labeled Peptide,protein Q92973 TNPO1 Transportin-1,273-298
same,Labeled Peptide,protein RALA Ras-related protein Ral-A (P11233),28-47
same,Labeled Peptide,"protein SMYD3 SET and MYND domain-containing protein 3, residues of the probe-modified peptide",255-265
same,Labeled Peptide,"protein TNPO1 Transportin-1, residues of the probe-modified peptide",273-298
